Measured values as given in patent US20230390251A1, “METHODS OF TREATING RIBONUCLEOTIDE REDUCTASE-RELATED DISEASES WITH A RIBONUCLEOTIDE REDUCTASE INHIBITOR” (TAIHO PHARMACEUTICAL CO., LTD., priority 2020, published 2023).

Columns and labels:
A673 cells = assay: Caspase-Glo 3/7 caspase induction assay in A673 cells treated with siRNA against SLFN11; assay type: cell-based; conditions: 10 micro mol/L, 24 h; A673 cells transfected with siRNA against SLFN11
Protocol: A673 cells, NCI-H460 cells and CFPAC-1 cells were transfected with 1 nM siRNAs for 24 h using Lipofectaminet®RNAiMAX Reagent (Thermo Fisher Scientific Inc.) and then re-seeded onto a 96-well plate for cell proliferation assay and caspase induction assay and onto dishes for immunoblotting analysis. siRNAs were obtained from Thermo Fisher Scientific Inc. as follows: Silencer® Select Negative Control #1 siRNA (#4390843 used as siControl), SLFN11 Silencer® Select Pre-designed siRNA (#s40703 used as siSLFN11-1, #s40704 as siSLFN11-2, and #s40702 as siSLFN11-3).
Caspase induction assay was performed in accordance with conventional methods, available in Hasako., et al., ibid. Briefly, the cells with siRNAs for 24 h were seeded onto 96 well plate, incubated for 24 h, and then treated with Compound A for 24 h. Caspase induction was detected by using the Caspase-Glo 3/7 assay (Promega).

[1] = biological target: T1, Ribonucleotide reductase (RNR) (Homo sapiens, UniProt P23921+P31350); conditions: from the literature (NPL 7; PL 1); cited from earlier work
T1 sequence (P23921 1-792): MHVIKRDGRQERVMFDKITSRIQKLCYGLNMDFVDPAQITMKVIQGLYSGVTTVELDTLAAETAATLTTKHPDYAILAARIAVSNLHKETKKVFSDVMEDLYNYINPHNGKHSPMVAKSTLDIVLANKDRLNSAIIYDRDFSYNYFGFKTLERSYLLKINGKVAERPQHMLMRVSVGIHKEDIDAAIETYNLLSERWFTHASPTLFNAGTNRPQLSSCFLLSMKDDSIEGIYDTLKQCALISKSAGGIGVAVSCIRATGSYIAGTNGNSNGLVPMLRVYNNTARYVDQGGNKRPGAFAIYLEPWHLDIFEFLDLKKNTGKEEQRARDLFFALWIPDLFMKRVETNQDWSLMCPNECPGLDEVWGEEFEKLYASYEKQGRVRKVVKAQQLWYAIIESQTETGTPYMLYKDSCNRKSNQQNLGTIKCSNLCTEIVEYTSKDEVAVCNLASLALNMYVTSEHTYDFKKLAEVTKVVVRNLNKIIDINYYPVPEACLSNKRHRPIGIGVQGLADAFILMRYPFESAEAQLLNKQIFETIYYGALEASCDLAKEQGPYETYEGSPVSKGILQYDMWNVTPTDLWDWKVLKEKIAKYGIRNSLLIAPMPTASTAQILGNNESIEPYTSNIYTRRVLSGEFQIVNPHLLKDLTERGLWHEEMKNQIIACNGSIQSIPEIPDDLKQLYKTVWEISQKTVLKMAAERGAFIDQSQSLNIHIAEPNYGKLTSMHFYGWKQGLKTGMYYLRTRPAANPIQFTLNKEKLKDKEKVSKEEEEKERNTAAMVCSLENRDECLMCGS
T1 sequence (P31350 1-389): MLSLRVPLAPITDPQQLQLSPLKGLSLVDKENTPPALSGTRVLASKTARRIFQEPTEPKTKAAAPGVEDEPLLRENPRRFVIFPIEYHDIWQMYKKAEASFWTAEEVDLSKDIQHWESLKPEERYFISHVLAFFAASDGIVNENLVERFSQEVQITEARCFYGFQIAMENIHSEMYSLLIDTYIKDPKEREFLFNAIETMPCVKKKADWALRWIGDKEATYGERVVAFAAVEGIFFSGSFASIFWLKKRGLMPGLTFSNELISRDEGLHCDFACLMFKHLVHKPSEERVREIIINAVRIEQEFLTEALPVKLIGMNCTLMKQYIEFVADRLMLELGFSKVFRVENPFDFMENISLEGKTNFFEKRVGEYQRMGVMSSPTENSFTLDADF

[2] = test system: 11 sarcoma cell lines listed in Table 1; assay: Cell proliferation assay (CellTiter-Glo) in 11 sarcoma cell lines, correlated with SLFN11 mRNA expression; assay type: cell-based; conditions: 100 micro mol/L Compound A, 3 days of exposure, Pearson's correlation (P<0.05)
Protocol: Cell proliferation assay was performed in accordance with conventional methods, available in Hasako. S., et al. Mol Cancer Ther 17, 1648-1658 (2018). Briefly, cells were plated and incubated for 1 day, followed by 3 days of exposure to the compound. After exposure to Compound A, viable cells were detected by using the CellTiter-Glo luminescent cell viability assay (Promega). The experiment was performed in triplicates.
Correlation analysis of SLFN11 expression and Compound A cytotoxicity was performed using Pearson's correlation coefficient (P<0.05) in JMP 13 software. The gene expression data of cell lines were available online CCLE (http://www.broadinstitute.org/ccle/home). Compound A cytotoxicity data from 11 cell lines in Table 1 were used for correlation analysis (data for correlation was not shown).
The correlation between SLFN11 mRNA expression and the relative growth percent of cells at 100 micro mol/L treatment by Compound A was analyzed in 11 sarcoma cell lines listed in Table 1.

Cc1ccc(F)c([C@@H](C)[C@H](NS(=O)(=O)c2ccc(Cl)cc2C(N)=O)c2n[nH]c(=O)o2)c1C [Compound A, 5-chloro-2-(N-((1S,2R)-2-(6-fluoro-2,3-dimethylphenyl)-1-(5-oxo-4,5-dihydro-1,3,4-oxadiazol-2-yl)propyl)sulfamoyl)benzamide]
compound-induced caspase-3/7 activation after SLFN11 knockdown (A673 cells): suppression
RNR inhibitory activity [1]: potent
correlation between SLFN11 mRNA expression and relative cell growth (%) [2]: a significant correlation
